Here are results for 10 compounds from US20140303164A1, “THERAPEUTIC COMPOUNDS” (Gilead Sciences, Inc., priority 2013, published 2014).

As usually defined, the inhibition is the change of the read-out against control, counted positive when it falls. As usually defined, the CC50 is the concentration giving 50% cytotoxicity. Low readings indicate harm at low concentration, high ones better tolerance by the cells.

In one data set the test system is HIV-IIIb. The data set is described as follows: Test A: Antiviral Assay in MT4 Cells. Format: cell-based, HIV-1. Conditions: Human immunodeficiency virus 1, IIIB, MT4, 120 h; for inhibition at 0.2 µM: read-out: % inhibition at 0.2 μM; for inhibition at 2 µM: read-out: % inhibition at 2 μM. How it is done: Test A: Antiviral Assay in MT4 Cells
MT-4 cells were next mixed with HIV-IIIb at an m.o.i of 0.003 for 1 hour, after which time 35 μL of virus/cell mixture (2000 cells) was immediately added to each well containing 40 μL of diluted compound. The plates were then incubated at 37° C. for 5 days. […] Cell lysis was carried out by incubating at room temperature for 10 min and then chemiluminescence was read.

A short description of data set [1]: Test B: Cytotoxicity Assay. Format: cell-based. Conditions: human, uninfected MT-4 cells, same protocol as Test A. In a few lines:
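Uninfected MT-4 cells (2000 per well) incubated with diluted compound at 37° C. for 5 days, following the antiviral protocol without HIV-IIIb.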

Regarding `Cn1nc(O)c2cccc(-c3ccc(C#CC(C)(C)O)nc3[C@H](Cc3cc(F)cc(F)c3)NC(=O)Cn3nc(C(F)F)c4c3C(F)(F)[C@@H]3C[C@H]43)c21` [Compound 107B, 2-((3bS,4aR)-3-(difluoromethyl)-5,5-difluoro-3b,4,4a,5-tetrahydro-1H-cyclopropa[3,4]cyclopenta[1,2-c]pyrazol-1-yl)-N—((S)-2-(3,5-difluorophenyl)-1-(6-(3-hydroxy-3-methylbut-1-yn-1-yl)-3-(1-methyl-3-oxo-2,3-dihydro-1H-indazol-7-yl)pyridin-2-yl)ethyl)acetamide], in the data set on HIV-IIIb, the inhibition at 0.2 µM worked out at 95% and the inhibition at 2 µM is 95%. Also, in data set [1], the CC50 at 5 days came out at 5.3 µM.

For `CN(C)CC#Cc1ccc(-c2cccc3c(NS(C)(=O)=O)nn(C)c23)c([C@H](Cc2cc(F)cc(F)c2)NC(=O)Cn2nc(C(F)(F)F)c3c2C(F)(F)[C@@H]2C[C@H]32)n1` [Compound 61B, 2-((3bS,4aR)-5,5-difluoro-3-(trifluoromethyl)-3b,4,4a,5-tetrahydro-1H-cyclopropa[3,4]cyclopenta[1,2-c]pyrazol-1-yl)-N—((S)-2-(3,5-difluorophenyl)-1-(6-(3-(dimethylamino)prop-1-yn-1-yl)-3-(1-methyl-3-(methylsulfonamido)-1H-indazol-7-yl)pyridin-2-yl)ethyl)acetamide], in the data set on HIV-IIIb, the inhibition at 0.2 µM came to 96% and the inhibition at 2 µM is 96%. This compound also returned a CC50 at 5 days in data set [1] of 14.3 µM.

Turning to `CC(=O)Nc1nn(CC(=O)N[C@@H](Cc2cc(F)cc(F)c2)c2nc(C#CC(C)(C)O)ccc2-c2ccc(Cl)c3c(NS(C)(=O)=O)nn(C)c23)c2c1[C@H]1C[C@H]1C2(F)F` [Compound 163, 2-((3bS,4aR)-3-acetamido-5,5-difluoro-3b,4,4a,5-tetrahydro-1H-cyclopropa[3,4]cyclopenta[1,2-c]pyrazol-1-yl)-N—((S)-1-(3-(4-chloro-1-methyl-3-(methylsulfonamido)-1H-indazol-7-yl)-6-(3-hydroxy-3-methylbut-1-yn-1-yl)pyridin-2-yl)-2-(3,5-difluorophenyl)ethyl)acetamide], in the data set on HIV-IIIb, the inhibition at 0.2 µM worked out at 79% and the inhibition at 2 µM is 86%. Also, in data set [1], the cytotoxic concentration (CC50) at 5 days worked out at 8.85 µM.

As to `Cn1nc(NS(C)(=O)=O)c2cccc(-c3ccc(C#CC(C)(C)N)nc3[C@H](Cc3cc(F)cc(F)c3)NC(=O)Cn3nc(C(F)(F)F)c4c3C(F)(F)[C@@H]3C[C@H]43)c21` [Compound 104, N—((S)-1-(6-(3-amino-3-methylbut-1-yn-1-yl)-3-(1-methyl-3-(methylsulfonamido)-1H-indazol-7-yl)pyridin-2-yl)-2-(3,5-difluorophenyl)ethyl)-2-((3bS,4aR)-5,5-difluoro-3-(trifluoromethyl)-3b,4,4a,5-tetrahydro-1H-cyclopropa[3,4]cyclopenta[1,2-c]pyrazol-1-yl)acetamide], in the data set with HIV-IIIb, the inhibition at 0.2 µM came to 100% and the inhibition at 2 µM came out at 100%. Further, the cytotoxic concentration (CC50) at 5 days in data set [1] came out at 7.46 µM.

`Cn1nc(NC(=O)C2CC2)c2c(Cl)ccc(-c3ccc(C#CC(C)(C)O)nc3[C@H](Cc3cc(F)cc(F)c3)NC(=O)Cn3nc(C(F)F)c4c3C(F)(F)[C@@H]3C[C@H]43)c21` [Compound 86, N-(4-chloro-7-(2-((S)-1-(2-((3b-S,4aR)-3-(difluoromethyl)-5,5-difluoro-3b,4,4a,5-tetrahydro-1H-cyclopropa[3,4]cyclopenta[1,2-c]pyrazol-1-yl)acetamido)-2-(3,5-difluorophenyl)ethyl)-6-(3-hydroxy-3-methylbut-1-yn-1-yl)pyridin-3-yl)-1-methyl-1H-indazol-3-yl)cyclopropanecarboxamide]: in the data set with HIV-IIIb, the inhibition at 0.2 µM was determined as 99% and the inhibition at 2 µM came to 99%. Further, in data set [1], the CC50 at 5 days stood at 6.47 µM.

Take `Cc1c(CCO)c(C2CC2)nn1CC(=O)N[C@@H](Cc1cc(F)cc(F)c1)c1nc(C#CC(C)(C)O)ccc1-c1ccc(Cl)c2c(NS(C)(=O)=O)nn(C)c12` [Compound 167, (S)—N-(1-(3-(4 chloro-1-methyl-3-(methylsulfonamido)-1H-indazol-7-yl)-6-(3-hydroxy-3-methylbut-1-yn-1-yl)pyridin-2-yl)-2-(3,5-difluorophenyl)ethyl)-2-(3-cyclopropyl-4-(2-hydroxyethyl)-5-methyl-1H-pyrazol-1-yl)acetamide]: in the data set on HIV-IIIb, the inhibition at 0.2 µM came out at 93% and the inhibition at 2 µM amounted to 93%. Further, in data set [1], half-maximal cytotoxicity (CC50 at 5 days) was put at 34.1 µM.

As for `Cn1cc(S(=O)(=O)Nc2nn(C)c3c(-c4ccc(C#CC(C)(C)O)nc4[C@H](Cc4cc(F)cc(F)c4)NC(=O)Cn4nc(C(F)(F)F)c5c4C(F)(F)[C@@H]4C[C@H]54)cccc23)cn1` [Compound 48, 2-((3bS,4aR)-5,5-difluoro-3-(trifluoromethyl)-3b,4,4a,5-tetrahydro-1H-cyclopropa[3,4]cyclopenta[1,2-c]pyrazol-1-yl)-N—((S)-2-(3,5-difluorophenyl)-1-(6-(3-hydroxy-3-methylbut-1-yn-1-yl)-3-(1-methyl-3-(1-methyl-1H-pyrazole-4-sulfonamido)-1H-indazol-7-yl)pyridin-2-yl)ethyl)acetamide], in the data set with HIV-IIIb, the inhibition at 0.2 µM was 88% and the inhibition at 2 µM came out at 88%. The compound further registered a CC50 at 5 days in data set [1] of 24 µM.

With `Cn1nc(NS(C)(=O)=O)c2c(Cl)ccc(-c3ccc(C#CC(C)(C)O)nc3[C@H](Cc3cc(F)cc(F)c3)NC(=O)Cn3nc(N)c4c3C(F)(F)[C@@H]3C[C@H]43)c21` [Compound 148B, 2-((3bS,4aR)-3-amino-5,5-difluoro-3b,4,4a,5-tetrahydro-1H-cyclopropa[3,4]cyclopenta[1,2-c]pyrazol-1-yl)-N—((S)-1-(3-(4-chloro-1-methyl-3-(methylsulfonamido)-1H-indazol-7-yl)-6-(3-hydroxy-3-methylbut-1-yn-1-yl)pyridin-2-yl)-2-(3,5-difluorophenyl)ethyl)acetamide], in the data set with HIV-IIIb, the inhibition at 0.2 µM was determined as 83% and the inhibition at 2 µM was 83%. In data set [1], this compound returned a CC50 at 5 days of 23.3 µM.

Consider `C[C@H](O)C#Cc1ccc(-c2ccc(Cl)c3c(NS(C)(=O)=O)nn(C)c23)c([C@H](Cc2cc(F)cc(F)c2)NC(=O)Cn2nc(C(F)F)c3c2C(F)(F)[C@@H]2C[C@H]32)n1` [Compound 142, N—((S)-1-(3-(4-chloro-1-methyl-3-(methylsulfonamido)-1H-indazol-7-yl)-6-((S)-3-hydroxybut-1-yn-1-yl)pyridin-2-yl)-2-(3,5-difluorophenyl)ethyl)-2-((3bS,4aR)-3-(difluoromethyl)-5,5-difluoro-3b,4,4a,5-tetrahydro-1H-cyclopropa[3,4]cyclopenta[1,2-c]pyrazol-1-yl)acetamide], for which, in the data set with HIV-IIIb, the inhibition at 0.2 µM stood at 92% and the inhibition at 2 µM came to 92%. For the same compound, the midpoint of cytotoxicity in data set [1], the CC50 at 5 days, lay at 12.6 µM.

With `CC(C)C(O)C#Cc1ccc(-c2cccc3c(NS(C)(=O)=O)nn(C)c23)c([C@H](Cc2cc(F)cc(F)c2)NC(=O)Cn2nc(C(F)(F)F)c3c2C(F)(F)[C@@H]2C[C@H]32)n1` (stereo partly drawn) [Compound 64, 2-((3bS,4aR)-5,5-difluoro-3-(trifluoromethyl)-3b,4,4a,5-tetrahydro-1H-cyclopropa[3,4]cyclopenta[1,2-c]pyrazol-1-yl)-N-((1S)-2-(3,5-difluorophenyl)-1-(6-(3-hydroxy-4-methylpent-1-yn-1-yl)-3-(1-methyl-3-(methylsulfonamido)-1H-indazol-7-yl)pyridin-2-yl)ethyl)acetamide], in the data set with HIV-IIIb, the inhibition at 0.2 µM came out at 98% and the inhibition at 2 µM came out at 98%. In data set [1], the midpoint of cytotoxicity, the CC50 at 5 days, lay at 7.7 µM.
